# Measured values published in patent US20140301947A1, “METHODS TO PREDICT BINDING AFFINITY OF TSPO IMAGING AGENTS TO TSPO” (IMPERIAL INNOVATIONS LIMITED, priority 2011, published 2014).
# Values joined by “and” are separate entries in the source; they are usually repeats but may differ in a detail not shown here. Equal entries are not always repeated. Where two headings read alike, the source gives them in different places.
# Columns and labels:
# [1] = biological target: T1, TSPO (Homo sapiens, UniProt P30536); assay: Competition binding assay, unlabelled PBR28 displacing [3H]PK11195 in human platelet membranes; parameters: from tissue; details: platelets, mean±SEM
# Protocol: (§1) The study protocol, volunteer information and informed consent forms were approved by the local Research Ethics Committee. Forty-one healthy volunteers (29 male, 12 female, mean age 36.3±1.4 years) were recruited. […] Venous blood (50 ml) was drawn into EDTA-containing tubes, and separated into a lymphocyte-rich bottom layer (for genetic analysis) and platelet-rich top layer by centrifugation (180×g, 15 min, 4° C.). The platelet-rich layer (for binding assays) was re-centrifuged (1800×g, 15 min, 4° C.) to produce a platelet-containing pellet. Platelet membranes were prepared as previously described (5).
# (§2) Binding data were analysed using GraphPad Prism 5.0. Single site and two site competition models were fitted using the least squares algorithm and model selection was compared using an F-test. The null hypothesis, that the data fitted a single site model, was rejected if the p value was less than 0.05. […] MABs were defined as subjects with two binding sites. Data are expressed as the mean±standard error of the mean (SEM).
# Target sequence in this assay (P30536 2-169): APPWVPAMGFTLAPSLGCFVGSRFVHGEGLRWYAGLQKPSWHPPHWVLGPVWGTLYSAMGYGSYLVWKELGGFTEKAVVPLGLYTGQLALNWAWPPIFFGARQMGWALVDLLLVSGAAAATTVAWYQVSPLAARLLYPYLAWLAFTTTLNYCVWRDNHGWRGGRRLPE
# [2] = biological target: T2, TSPO (Homo sapiens, UniProt P30536, T147A); assay: as above; parameters: from tissue; details: platelets, mean±SEM
# Protocol: as §1, §2
# [3] = biological target: T1, TSPO; assay: Competition binding with [3H]PK11195 in human brain (method of J Nucl Med 2011;52:24-32); parameters: from tissue; host or cells: human brain (membrane preparation, by the cited method)
# Source text: (§3) Thus, for example, the binding affinity of the compound may be determined in tissue derived from a HAB and in tissue derived from a LAB. An appropriate method may comprise the following steps: • obtain samples from human volunteers of tissue which contains TSPO (for example brain (for example for archive samples) or platelets (for example from blood)).
# (§4) In more detail, as an example, a 48 well plate may be used, for example with 8-12 different concentrations of experimental drug for each experiment (be it the radiolabelled drug for saturation studies or the un-radiolabelled drug for competition studies). Concentrations may range from around 0.1 nM, increasing in roughly half logs (ie 0.1 nM, 0.3 nM, 1 nM, 3 nM etc) up to around 10,000 nM. 3-4 wells may be used for each concentration and the average taken to increase the precision around the estimate for each data point. The amount of tissue material required depends on how much TSPO is in the chosen tissue. For brain ˜100 micrograms of protein in each well (500 microlitres) may typically be used, giving a protein concentration of ˜200 micrograms/ml. Similar amounts may be used for platelets. For a tissue with very high TSPO levels (eg adrenal gland) a lot less protein would be needed.
# Target sequence in this assay (P30536 2-169): as above
# [4] = biological target: T2, TSPO; assay: as above; parameters: from tissue; host or cells: human brain (membrane preparation, by the cited method); details: human brain
# Source text: as §3, §4
# [5] = biological target: T1, TSPO; parameters: from tissue; host or cells: human brain (membrane preparation, by the cited method); details: background, reference (5); read-out: Ki values for LABs; cited from earlier work
# Target sequence in this assay (P30536 2-169): as above
# [6] = biological target: T2, TSPO; parameters: from tissue; host or cells: human brain (membrane preparation, by the cited method); details: background, reference (5); read-out: Ki values for HABs; cited from earlier work
# [7] = test system: TSPO; assay: Competition binding with [3H]PK11195 in human brain (method of J Nucl Med 2011;52:24-32); details: for ratio of specific signal, LAB: LAB set to 1; for LAB/HAB: ratio of Ki LAB to Ki HAB; for ratio of specific signal, HAB / ratio of specific signal, MAB: relative to LAB = 1
# Source text: as §3, §4
# [8] = test system: TSPO; assay: Competition radioligand binding assay with [3H]PK11195 and unlabelled GE1 in HABs and LABs; parameters: species or system human; details: LAB mean Ki / HAB mean Ki
# Protocol: (§5) FIG. 6: Competition radioligand binding assay with [3H]
# (§6) Binding assays were performed as for the other compounds, as described above. The compound concentrations used were 10000 nM, 3000 nM. 1000 nM, 300 nM, 100 nM. 30 nM, 10 nM, 3 nM, 1 nM, 0.3 nM and 0.03 nM. 6 HABS and 6 LABs were used.
# [9] = biological target: T1, TSPO; assay: as above; parameters: from tissue; host or cells: human brain (membrane preparation, by the cited method)
# Protocol: as §5, §6
# Target sequence in this assay (P30536 2-169): as above
# [10] = biological target: T2, TSPO; assay: as above; parameters: from tissue; host or cells: human brain (membrane preparation, by the cited method)
# Protocol: as §5, §6
# [11] = biological target: T1, TSPO; assay: Competition binding with [3H]PK11195 in human brain (method of J Nucl Med 2011;52:24-32); parameters: Ki MAB; Vinpocetine Ki, MAB; details: mixed affinity binders, single value, human brain; read-out: Ki MAB
# Source text: as §3, §4
# [12] = biological target: TSPO; assay: Competition binding assay with [3H]PK11195 and unlabelled vinpocetine in human brain membranes; details: average of HAB and LAB means; read-out: mean Ki value of HABs and LABs
# Protocol: (§7) Tissue was obtained from the UK Multiple Sclerosis (MS) Tissue Bank at Imperial College. All tissue blocks obtained included only “normal appearing” tissue, without immunohistochemical evidence of demyelination or significant inflammatory infiltrate. The tissue was stored at −80° C. until use. Tissue blocks from 15 donors (5 each from HAB, MAB and LAB donors) were used. The binding affinity classification for each tissue block had been established previously using PBR28 (Owen et al. 2010).
# (§8) Tissue blocks were homogenised in 10 times weight for volume (w/v) buffer ([…], 5 mM Tris base, 1 mM MgCl2, pH 7.4, 4° C.). […]
# (§9) Following incubation, assays were terminated via filtration through Whatman GF/B filters, followed by 3×1 ml washes with ice-cold wash buffer (50 mM Tris Base, 1.4 mM MgCl2, pH 7.4, 4° C.). […] Scintillation fluid (4 ml/vial, Perkin Elmer Ultima Gold MV) was added and vials counted on a Perkin Elmer Tricarb 2900 liquid scintillation counter. […] Ki (nM) values were determined using GraphPad Prism 5.0 software (GraphPad Software Inc, USA).
# (§10) Protein concentrations (μg protein/ml) were determined using the Bicinchoninic acid assay (BCA Kit, Sigma-Aldrich, UK) and absorption read at 562 nm.
# (§11) Data were analysed using the iterative non-linear regression curve fitting software supplied with GraphPad Prism 5.0. […] Data are expressed as the mean (standard error of the mean). […]
# [13] = biological target: T3, TSPO (Rattus norvegicus, UniProt P16257); details: rat heart; cited from earlier work
# T3 construct: 200 nM in the rat heart (Gulyas et al. 2005); host or cells: rat heart
# [14] = test system: sodium channels, calcium channels, phosphodiesterases or NF-κB; details: cited from earlier work
# [15] = biological target: T1, TSPO; details: high affinity interaction (<100 nM) excluded; not formally measured; cited from earlier work
# Target sequence in this assay (P30536 whole entry): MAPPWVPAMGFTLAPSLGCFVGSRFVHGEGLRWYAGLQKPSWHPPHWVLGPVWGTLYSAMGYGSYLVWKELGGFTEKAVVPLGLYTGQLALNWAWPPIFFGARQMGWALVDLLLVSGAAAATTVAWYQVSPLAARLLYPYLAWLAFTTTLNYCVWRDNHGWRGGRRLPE
# [16] = biological target: T1, TSPO; assay: Competition binding assay with [3H]PK11195 and unlabelled vinpocetine in human brain membranes; parameters: Ki MAB; Vinpocetine Ki, MAB; details: A/T subjects, mixed affinity binder, human brain, mean (SEM), read-out: Vinpocetine Ki, MAB
# Protocol: as §7, §8, §9, §10, §11
# [17] = biological target: T2, TSPO; assay: as above; parameters: from tissue; host or cells: human brain (membrane preparation, by the cited method); details: A/A subjects, high affinity binder, human brain, mean (SEM); read-out: Vinpocetine Ki, HAB
# Protocol: as §7, §8, §9, §10, §11
# [18] = test system: TSPO; assay: Autoradiography with [18F]FEPPA on slides previously characterised with [3H]PBR28; format: binding; details: LAB slide versus HAB and MAB slides
# Source text: FIG. 4: Autoradiograhpy (above) with [^18F]FEPPA (structure below). The sample slides in the figure have been previously characterised with [^3H]PBR28 and are all from HABs and MABs, but for the slide second from the left which is a LAB.
# [19] = low affinity binders, human brain, read-out: Ki LAB
# [20] = mixed affinity binders, two values given, human brain, read-out: Ki MAB, second (low affinity) value
# [21] = high affinity binders, nM, read-out: Ki HAB
# [22] = mixed affinity binders, two values given, read-out: Ki MAB, first (high affinity) value
# [23] = grouping of ligands into 3 distinct affinities, read-out: affinity for the "Low Affinity receptor"
# T2 sequence (P30536 2-169 T147A): as the sequence (P30536 2-169) above, with T146A counted along it
Ki [11],SMILES,"Ki [3, 19]","Ki [4, 21]","ratio of specific signal, LAB [7]",LAB/HAB [7],"ratio of specific signal, HAB [7]","ratio of specific signal, MAB [7]",also measured
–,COc1ccccc1CN(C(C)=O)c1cnccc1Oc1ccccc1 [PBR28],188 ± 7 nM,3.4 ± 0.2 nM,–,–,–,–,"Ki ([1]; LABs (2/41 subjects), read-out: Ki, single class of low affinity sites): 187 ± 19.7 nM; Ki ([1]; MABs (12/41 subjects), read-out: Ki, two-site model, low affinity site): 297 ± 43.3 nM; Ki ([2]; HABs (27/41 subjects), read-out: Ki, single class of high affinity sites): 2.17 ± 0.17 nM; Ki ([2]; MABs (12/41 subjects), read-out: Ki, two-site model, high affinity site): 2.23 ± 0.31 nM; Ki [3, 20]: 313 nM; Ki [4, 22]: 4 nM; Ki [5]: 200 nM; Ki [6]: 4 nM"
–,CCN(CC)C(=O)C1CCCC2C1c1c(OC)cccc1N2CCF (stereo not shown) [GE1],145 ± 22.1 nM,12.3 ± 2.1 nM,1,11.8,11.8,6.4,"Affinity shift [8]: 11.8 fold; Ki ([9]; 6 LABs, racemate, read-out: Ki, mean of LABs): 145 nM; IC50 ([9]; individual LAB subjects, 5 nM [3H]PK11195): 103 nM and 108 nM and 162 nM and 135 nM and 276 nM and 170 nM; Ki ([9]; individual LAB subjects, read-out: Ki): 87.7 nM and 91.9 nM and 138 nM and 115 nM and 235 nM and 145 nM; Ki ([10]; 6 HABs, racemate, read-out: Ki, mean of HABs): 12.3 nM; IC50 ([10]; individual HAB subjects, 5 nM [3H]PK11195): 4.51 nM and 16.1 nM and 10.7 nM and 14.9 nM and 21.2 nM and 19.3 nM; Ki ([10]; individual HAB subjects, read-out: Ki): 3.85 nM and 13.8 nM and 9.12 nM and 12.7 nM and 18.1 nM and 16.5 nM"
10.5 ± 0.99 nM,CCN(Cc1ccccc1)C(=O)Cn1c(=O)n(C)c2cnc(-c3ccccc3)nc21 [Emapunil],30.3 ± 8.7 nM,2.4 ± 0.67 nM,–,12.6,–,–,"Ki [3, 23]: < 31 nM"
–,COc1ccc(OC)c(CN(C(=O)CF)c2ccccc2Oc2ccccc2)c1 [PBR06],149 ± 46.6 nM,8.6 ± 2 nM,1,17,17.3,9.2,"Ki [3, 20]: 176 nM; Ki [4, 22]: 13.4 nM"
–,CC(=O)N(Cc1ccccc1O[11CH3])c1cnccc1Oc1ccccc1 [PBR28],–,–,1,55,55.3,28.2,–
–,"CCOC(=O)C1=C[C@]2(CC)CCCN3CCc4c(n1c1ccccc41)[C@@H]32 [Vinpocetine, ethyl apovincaminate]",–,–,–,–,–,–,"Ki [12]: 443 nM; reported binding affinity [13]: 200 nM; concentrations required for these effects ([14]; phosphodiesterase inhibition, blockade of sodium and calcium channels): 1 to 44 µM; affinity for these targets (Ki) ([14]; sodium channels, calcium channels, phosphodiesterases or NF-κB): Ki in the uM range; binding affinity for the TSPO in humans [15]: ≥ 100 nM; Ki ([16]; listed as vinpocetine): 332 nM; Ki [16]: 332 nM; Ki [17]: 777 nM"
–,"CCC(C)N(C)C(=O)c1cc2ccccc2c(-c2ccccc2Cl)n1 (stereo not shown) [PK11195, 1-(2-Chlorophenyl)-N-methyl-N-(1-methylpropyl)-3-isoquinolinecarboxamide]",–,–,–,–,–,–,"difference in binding affinity to Ala147TSPO and Thr147TSPO ([7]; assay as in Owen et al (2011) J Nucl Med 52, 24-32): No significant difference in binding affinity has been detected"
4.8 ± 0.4 nM,COc1ccc(OC)c(CN(C(C)=O)c2cc(F)ccc2Oc2ccccc2)c1 [DAA1106],13.1 ± 1.3 nM,2.8 ± 0.3 nM,1,4.7,4.7,2.9,–
–,CC(=O)N(Cc1ccccc1OCCF)c1cnccc1Oc1ccccc1 [FEPPA],–,–,–,–,–,–,autoradiography signal [18]: lack of signal for the LAB

SMILES,Ki [11],"Ki [3, 19]","Ki [4, 21]","ratio of specific signal, LAB [7]",LAB/HAB [7],"ratio of specific signal, HAB [7]","ratio of specific signal, MAB [7]",also measured
CCN(CC)C(=O)Cc1c(-c2ccc(OCCCF)cc2)nc2ccc(Cl)cn12 [PBR111],30.3 ± 4.1 nM,61.8 ± 10.7 nM,15.6 ± 3.7 nM,1,4,4.0,2.5,"Ki [3, 23]: ~60 nM; Ki [5]: 62 nM; Ki [6]: 16 nM"
